Source: patent US10336762B2 (priority 2017, dated 2019)
Like-named read-outs stand apart in the source and are kept apart here.

Assays:
IRAK4 enzyme = IRAK4 enzyme (Homo sapiens (Human), UniProt Q9NWZ3); assay: biochemical; type: biochemical; conditions: IRAK4 enzyme, 500 μM ATP
TNFα = assay: cells; type: cell-based, human; conditions: Homo sapiens, Monocyte, LPS-stimulated human monocytes, read-out: EC50 TNF

Chain of IRAK4 enzyme (Q9NWZ3 whole entry): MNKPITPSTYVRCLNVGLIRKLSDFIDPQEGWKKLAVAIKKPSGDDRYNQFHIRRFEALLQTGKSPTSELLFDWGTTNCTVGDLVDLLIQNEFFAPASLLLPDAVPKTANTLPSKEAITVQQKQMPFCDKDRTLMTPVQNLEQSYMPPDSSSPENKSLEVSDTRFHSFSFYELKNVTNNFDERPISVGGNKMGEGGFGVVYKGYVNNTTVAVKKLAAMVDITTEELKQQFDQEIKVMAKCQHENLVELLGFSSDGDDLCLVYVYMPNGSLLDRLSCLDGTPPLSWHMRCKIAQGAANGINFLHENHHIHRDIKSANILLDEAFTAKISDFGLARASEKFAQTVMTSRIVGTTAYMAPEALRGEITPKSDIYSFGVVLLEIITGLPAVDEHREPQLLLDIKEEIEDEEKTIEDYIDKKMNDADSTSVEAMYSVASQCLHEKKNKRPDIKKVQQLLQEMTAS

## N#CCNC(=O)c1cnc(-c2ccc3cc(C#N)cnn23)cc1Nc1cnn([C@H]2CCNC2)c1 [Example 896, (S)-N-(cyanomethyl)-6-(3-cyanopyrrolo[1,2-b]pyridazin-7-yl)-4-((1-(pyrrolidin-3-yl)-1H-pyrazol-4-yl)amino) nicotinamide]
IRAK4 enzyme; TR-FRET
  IC50: < 1 nM
TNFα; TNFα by TR-FRET
  EC50: 48 nM

## CC(C)(O)[C@H](F)CNC(=O)c1cnc(-c2ccc3cc(C#N)cnn23)cc1Nc1ccc2oc(=O)[nH]c2c1 [Example 568, (R)-6-(3-cyanopyrrolo[1,2-b]pyridazin-7-yl)-N-(2-fluoro-3-hydroxy-3-methylbutyl)-4-((2-oxo-2,3-dihydrobenzo[d]oxazol-5-yl)amino)nicotinamide]
IRAK4 enzyme; TR-FRET (HTRF)
  IC50: < 1 nM
TNFα; TNFα content
  EC50: 214 nM

## CC(C)Nc1cc(-c2ccc3cc(C#N)cnn23)ncc1C(=O)N[C@H]1CC[C@H](O)C1 [Example 189, 6-(3-cyanopyrrolo[1,2-b]pyridazin-7-yl)-N-((1S,3S)-3-hydroxycyclopentyl)-4-(isopropylamino) nicotinamide]
IRAK4 enzyme; TR-FRET
  IC50: 6 nM
TNFα; TNFα content
  EC50: 136 nM

## N#CCNC(=O)c1cnc(-c2ccc3cc(C#N)cnn23)cc1NC12CCC(C(=O)NC3COC3)(CC1)CC2 [Example 454, N-(cyanomethyl)-6-(3-cyanopyrrolo[1,2-b]pyridazin-7-yl)-4-((4-(oxetan-3-ylcarbamoyl)bicyclo[2.2.2]octan-1-yl)amino)nicotinamide]
IRAK4 enzyme; TR-FRET (HTRF)
  IC50: < 1 nM
TNFα; TNFα content
  EC50: 207 nM

## [2H]C([2H])([2H])NC(=O)c1cnc(-c2ccc3cc(C#N)cnn23)cc1NC12CC(NC(C)=O)(C1)C2 [Example 497, 4-((3-acetamidobicyclo[1.1.1]pentan-1-yl)amino)-6-(3-cyanopyrrolo[1,2-b]pyridazin-7-yl)-N-(methyl-d3)nicotinamide]
IRAK4 enzyme; TR-FRET (HTRF)
  IC50: 1 nM
TNFα; TNFα content
  EC50: 55 nM

## COC(=O)NC1(c2ccc(Nc3cc(-c4ccc5cc(C#N)cnn45)ncc3C(=O)NC[C@@H](F)C(C)(C)O)cc2)CC1 [Example 212, (R)-methyl (1-(4-((2-(3-cyanopyrrolo[1,2-b]pyridazin-7-yl)-5-((2-fluoro-3-hydroxy-3-methylbutyl)carbamoyl)pyridin-4-yl)amino)phenyl)cyclopropyl)carbamate]
IRAK4 enzyme; TR-FRET
  IC50: < 1 nM
TNFα; TNFα content
  EC50: 13 nM

## C#CCNC(=O)c1cnc(-c2ccc3cc(C#N)cnn23)cc1NC12CCC(O)(CC1)CC2 [Example 623, 6-(3-cyanopyrrolo[1,2-b]pyridazin-7-yl)-4-((4-hydroxybicyclo[2.2.2]octan-1-yl)amino)-N-(prop-2-yn-1-yl) nicotinamide]
IRAK4 enzyme; TR-FRET (HTRF)
  IC50: < 1 nM
TNFα; TNFα content
  EC50: 63 nM

## CC(C)(O)[C@H](F)CNC(=O)c1cnc(-c2ccc3cc(C#N)cnn23)cc1NC12CCC(C(=O)N3CCC3)(CC1)CC2 [Example 408, (R)-4-((4-(azetidine-1-carbonyl)bicyclo[2.2.2]octan-1-yl)amino)-6-(3-cyanopyrrolo[1,2-b]pyridazin-7-yl)-N-(2-fluoro-3-hydroxy-3-methylbutyl)nicotinamide]
IRAK4 enzyme; TR-FRET (HTRF)
  IC50: 1 nM
TNFα; TNFα content
  EC50: 31 nM

## CNc1ccc(Nc2cc(-c3ccc4cc(C#N)cnn34)ncc2C(=O)NC[C@@H](F)C(C)(C)O)cn1 [Example 661, (R)-6-(3-cyanopyrrolo[1,2-b]pyridazin-7-yl)-N-(2-fluoro-3-hydroxy-3-methylbutyl)-4-((6-(methylamino)pyridin-3-yl)amino)nicotinamide]
IRAK4 enzyme; TR-FRET (HTRF)
  IC50: < 1 nM
TNFα; TNFα content
  EC50: 19 nM

## CC(C)(O)[C@H](F)CNC(=O)c1cnc(-c2ccc3cc(C#N)cnn23)cc1NC1CCN(C(=O)c2ccoc2)CC1 [Example 156, (R)-6-(3-cyanopyrrolo[1,2-b]pyridazin-7-yl)-N-(2-fluoro-3-hydroxy-3-methylbutyl)-4-((1-(furan-3-carbonyl)piperidin-4-yl)amino)nicotinamide]
IRAK4 enzyme; TR-FRET
  IC50: 4 nM
TNFα; TNFα content
  EC50: 179 nM

## CC(C)(O)[C@H](F)CNC(=O)c1cnc(-c2ccc3cc(C#N)cnn23)cc1Nc1ccc2nc[nH]c2c1 [Example 580, (R)-4-((1H-benzo[d]imidazol-6-yl)amino)-6-(3-cyanopyrrolo[1,2-b]pyridazin-7-yl)-N-(2-fluoro-3-hydroxy-3-methyl-butyl)nicotinamide]
IRAK4 enzyme; TR-FRET (HTRF)
  IC50: < 1 nM
TNFα; TNFα content
  EC50: 69 nM

## CC(C)(O)[C@H](F)CNC(=O)c1cnc(-c2ccc3cc(C#N)cnn23)cc1Nc1cnc(N2CCOCC2)nc1 [Example 671, (R)-6-(3-cyanopyrrolo[1,2-b]pyridazin-7-yl)-N-(2-fluoro-3-hydroxy-3-methylbutyl)-4-((2-morpholinopyrimidin-5-yl)amino)nicotinamide]
IRAK4 enzyme; TR-FRET (HTRF)
  IC50: < 1 nM
TNFα; TNFα content
  EC50: 22 nM

## COCC(=O)N1CCC(Nc2cc(-c3ccc4cc(C#N)cnn34)ncc2C(=O)NC[C@@H](F)C(C)(C)O)CC1 [Example 328, (R)-6-(3-cyanopyrrolo[1,2-b]pyridazin-7-yl)-N-(2-fluoro-3-hydroxy-3-methylbutyl)-4-((1-(2-methoxyacetyl)piperidin-4-yl)amino)nicotinamide]
IRAK4 enzyme; TR-FRET
  IC50: 6 nM
TNFα; TNFα content
  EC50: 300 nM

## CC(C)(O)[C@H](F)CNC(=O)c1cnc(-c2ccc3cc(C#N)cnn23)cc1N[C@@H]1CCN(S(C)(=O)=O)C1 [Example 53, 6-(3-cyanopyrrolo[1,2-b]pyridazin-7-yl)-N-((R)-2-fluoro-3-hydroxy-3-methylbutyl)-4-(((R)-1-(methylsulfonyl)pyrrolidin-3-yl)amino)nicotinamide]
IRAK4 enzyme; TR-FRET
  IC50: < 1 nM
TNFα; TNFα content
  EC50: 65 nM

## CC(=O)NC12CC(Nc3cc(-c4ccc5cc(C#N)cnn45)ncc3C(=O)NC[C@@H](F)C(C)(C)O)(C1)C2 [Example 508, (R)-4-((3-acetamidobicyclo[1.1.1]pentan-1-yl)amino)-6-(3-cyanopyrrolo[1,2-b]pyridazin-7-yl)-N-(2-fluoro-3-hydroxy-3-methyl-butyl)nicotinamide]
IRAK4 enzyme; TR-FRET (HTRF)
  IC50: < 1 nM
TNFα; TNFα content
  EC50: 22 nM

## CC1(F)CC(Nc2cc(-c3ccc4cc(C#N)cnn34)ncc2C(=O)NC[C@@H](F)C(C)(C)O)C1 (stereo partly drawn) [Example 136, (R)-6-(3-cyanopyrrolo[1,2-b]pyridazin-7-yl)-N-(2-fluoro-3-hydroxy-3-methylbutyl)-4-((3-fluoro-3-methylcyclobutyl)amino) nicotinamide]
IRAK4 enzyme; TR-FRET
  IC50: 2 nM
TNFα; TNFα content
  EC50: 163 nM

## N#Cc1cnn2c(-c3cc(NC45CCC(O)(CC4)CC5)c(C(=O)NCC(=O)N4CCC(F)(F)C4)cn3)ccc2c1 [Example 798, 6-(3-cyanopyrrolo[1,2-b]pyridazin-7-yl)-N-(2-(3,3-difluoropyrrolidin-1-yl)-2-oxoethyl)-4-((4-hydroxybicyclo[2.2.2]octan-1-yl)amino) nicotinamide]
IRAK4 enzyme; TR-FRET
  IC50: 1 nM
TNFα; TNFα by TR-FRET
  EC50: 42 nM

## CC(C)(O)[C@H](F)CNC(=O)c1cnc(-c2ccc3cc(C#N)cnn23)cc1Nc1ccc(-n2cncn2)cc1 [Example 762, (R)-4-((4-(1H-1,2,4-triazol-1-yl)phenyl)amino)-6-(3-cyanopyrrolo[1,2-b]pyridazin-7-yl)-N-(2-fluoro-3-hydroxy-3-methylbutyl)nicotinamide]
IRAK4 enzyme; TR-FRET (HTRF)
  IC50: < 1 nM
TNFα; TNFα content
  EC50: 7 nM

## N#Cc1cnn2c(-c3cc(NC45CCC(O)(CC4)CC5)c(C(=O)NCC4(F)CCC4)cn3)ccc2c1 [Example 739, 6-(3-cyanopyrrolo[1,2-b]pyridazin-7-yl)-N-((1-fluorocyclobutyl)methyl)-4-((4-hydroxybicyclo[2.2.2]octan-1-yl)amino) nicotinamide]
IRAK4 enzyme; TR-FRET (HTRF)
  IC50: 4 nM
TNFα; TNFα content
  EC50: 277 nM

## N#Cc1cnn2c(-c3cc(NC45CCC(O)(CC4)CC5)c(C(=O)NCC(=O)N4CCOCC4)cn3)ccc2c1 [Example 785, 6-(3-cyanopyrrolo[1,2-b]pyridazin-7-yl)-4-((4-hydroxybicyclo[2.2.2]octan-1-yl)amino)-N-(2-morpholino-2-oxoethyl)nicotinamide]
IRAK4 enzyme; TR-FRET (HTRF)
  IC50: < 1 nM
TNFα; TNFα content
  EC50: 23 nM

## CC(C)(O)[C@H](F)CNC(=O)c1cnc(-c2ccc3cc(C#N)cnn23)cc1Nc1ccc(OC(F)F)nc1 [Example 597, (R)-6-(3-cyano-pyrrolo[1,2-b]pyridazin-7-yl)-4-((6-(difluoro-methoxy)pyridin-3-yl)amino)-N-(2-fluoro-3-hydroxy-3-methylbutyl) nicotinamide]
IRAK4 enzyme; TR-FRET (HTRF)
  IC50: 1 nM
TNFα; TNFα content
  EC50: 106 nM

## CC(C)Nc1cc(-c2ccc3cc(C#N)cnn23)ncc1C(=O)N[C@H]1CCC[C@H](O)C1 [Example 191, 6-(3-cyanopyrrolo[1,2-b]pyridazin-7-yl)-N-((1S,3S)-3-hydroxycyclohexyl)-4-(isopropylamino) nicotinamide]
IRAK4 enzyme; TR-FRET
  IC50: 4 nM
TNFα; TNFα content
  EC50: 128 nM

## CN1CC2C[C@@H](Nc3cc(-c4ccc5cc(C#N)cnn45)ncc3C(=O)NC[C@@H](F)C(C)(C)O)C[C@@H]2C1 (stereo partly drawn) [Example 245, 6-(3-cyanopyrrolo[1,2-b]pyridazin-7-yl)-N-((R)-2-fluoro-3-hydroxy-3-methylbutyl)-4-(((3aR,5s,6aS)-2-methyloctahydrocyclopenta[c]pyrrol-5-yl)amino)nicotinamide]
IRAK4 enzyme; TR-FRET
  IC50: 2 nM
TNFα; TNFα content
  EC50: 92 nM

## CC(C)(O)[C@H](F)CNC(=O)c1cnc(-c2ccc3cc(C#N)cnn23)cc1NC[C@H]1CCNC1 [Example 899, 6-(3-cyanopyrrolo[1,2-b]pyridazin-7-yl)-N-((R)-2-fluoro-3-hydroxy-3-methylbutyl)-4-((((S)-pyrrolidin-3-yl)methyl)amino)nicotinamide]
IRAK4 enzyme; TR-FRET
  IC50: 5 nM
TNFα; TNFα by TR-FRET
  EC50: > 10000 nM

## N#CCNC(=O)c1cnc(-c2ccc3cc(C#N)cnn23)cc1NC1COC1 [Example 460, N-(cyanomethyl)-6-(3-cyanopyrrolo[1,2-b]pyridazin-7-yl)-4-(oxetan-3-ylamino) nicotinamide]
IRAK4 enzyme; TR-FRET (HTRF)
  IC50: < 1 nM
TNFα; TNFα content
  EC50: 71 nM

## CC(C)Nc1cc(-c2ccc3cc(C#N)cnn23)ncc1C(=O)NC1CCN(C2COC2)CC1 [Example 86, 6-(3-cyanopyrrolo[1,2-b]pyridazin-7-yl)-4-(isopropylamino)-N-(1-(oxetan-3-yl)piperidin-4-yl) nicotinamide]
IRAK4 enzyme; TR-FRET
  IC50: 4 nM
TNFα; TNFα content
  EC50: 321 nM

## CC(C)(O)[C@H](F)CNC(=O)c1cnc(-c2ccc3cc(C#N)cnn23)cc1Nc1cnc2cc[nH]c2c1 [Example 566, (R)-4-((1H-pyrrolo[3,2-b]pyridin-6-yl)amino)-6-(3-cyanopyrrolo[1,2-b]pyridazin-7-yl)-N-(2-fluoro-3-hydroxy-3-methyl-butyl)nicotinamide]
IRAK4 enzyme; TR-FRET (HTRF)
  IC50: < 1 nM
TNFα; TNFα content
  EC50: 27 nM
